Assay results as given in ChEMBL document CHEMBL5154944, “Discovery of Aryloxyphenyl-Heptapeptide Hybrids as Potent and Selective Matrix Metalloproteinase-2 Inhibitors for the Treatment of Idiopathic Pulmonary Fibrosis” (J Med Chem, 2022).
Non-standard residues stand in square brackets, D forms with d. Residues, ends and D or L forms follow the SMILES beside them. *: point of attachment. Benzenesulfonyl(4-OPh) = O=S(=O)(c1ccc(Oc2ccccc2)cc1)*; Benzenesulfonyl(4-Ph) = O=S(=O)(c1ccc(-c2ccccc2)cc1)*; X2 = O=C(c1ccc(Oc2ccc(F)cc2)cc1)*; NMeI = CC[C@H](C)[C@H](NC)C(=O)O; NMeE = CN[C@@H](CCC(=O)O)C(=O)O; NMeL = CN[C@@H](CC(C)C)C(=O)O; NMeM = CN[C@@H](CCSC)C(=O)O; NMeV = CN[C@H](C(=O)O)C(C)C; β3hP = O=C(O)C[C@@H]1CCCN1; Dab = NCC[C@H](N)C(=O)O; Dap = NC[C@H](N)C(=O)O; Ava = NCCCCC(=O)O; GABA = NCCCC(=O)O; βAla = NCCC(=O)O

Key:
[1] = species on record: Homo sapiens; test: Selectivity ratio of IC50 for recombinant human MMP12 to IC50 for recombinant human MMP2
[2] = molecular target: 72 kDa type IV collagenase (Homo sapiens, UniProt P08253)
[3] = molecular target: Collagenase 3 (Homo sapiens, UniProt P45452)
[4] = molecular target: Macrophage metalloelastase (Homo sapiens, UniProt P39900)
Sequence of Macrophage metalloelastase (P39900 whole entry): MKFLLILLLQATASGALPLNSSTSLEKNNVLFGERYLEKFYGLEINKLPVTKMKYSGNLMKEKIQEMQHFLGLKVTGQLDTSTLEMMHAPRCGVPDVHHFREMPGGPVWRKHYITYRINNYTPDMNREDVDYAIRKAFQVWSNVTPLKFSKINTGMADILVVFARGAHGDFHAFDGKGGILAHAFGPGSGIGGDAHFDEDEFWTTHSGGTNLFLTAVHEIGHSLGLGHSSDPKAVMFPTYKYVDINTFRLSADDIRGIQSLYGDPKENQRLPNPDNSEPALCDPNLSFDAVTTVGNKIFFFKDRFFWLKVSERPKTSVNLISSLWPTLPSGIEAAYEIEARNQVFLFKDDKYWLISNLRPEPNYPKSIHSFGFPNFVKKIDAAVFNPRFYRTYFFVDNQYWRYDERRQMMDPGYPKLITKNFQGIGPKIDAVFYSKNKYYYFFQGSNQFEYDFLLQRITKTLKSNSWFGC

Sequence of 72 kDa type IV collagenase (P08253 whole entry): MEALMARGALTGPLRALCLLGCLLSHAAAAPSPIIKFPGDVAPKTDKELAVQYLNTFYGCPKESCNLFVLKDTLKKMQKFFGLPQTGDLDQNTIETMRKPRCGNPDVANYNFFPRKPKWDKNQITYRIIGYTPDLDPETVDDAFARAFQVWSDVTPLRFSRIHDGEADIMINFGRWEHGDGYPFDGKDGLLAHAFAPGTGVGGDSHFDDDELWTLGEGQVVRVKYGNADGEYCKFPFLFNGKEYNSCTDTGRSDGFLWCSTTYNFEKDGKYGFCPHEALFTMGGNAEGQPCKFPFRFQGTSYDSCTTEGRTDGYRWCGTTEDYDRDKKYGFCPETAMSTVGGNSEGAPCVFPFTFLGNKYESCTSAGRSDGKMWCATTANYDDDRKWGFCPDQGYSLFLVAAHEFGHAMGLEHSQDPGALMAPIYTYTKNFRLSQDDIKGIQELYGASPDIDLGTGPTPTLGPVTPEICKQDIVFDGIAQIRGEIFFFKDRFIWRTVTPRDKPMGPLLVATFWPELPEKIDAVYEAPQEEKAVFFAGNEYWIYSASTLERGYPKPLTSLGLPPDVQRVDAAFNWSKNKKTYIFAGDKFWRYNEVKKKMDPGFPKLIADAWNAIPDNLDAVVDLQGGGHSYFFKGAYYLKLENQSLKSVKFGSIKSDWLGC

| SMILES | Ratio IC50 [1] | IC50 [2] [nM] | IC50 [3] [nM] | IC50 [4] [nM] |
| --- | --- | --- | --- | --- |
| CC(C)C[C@H](NC(=O)[C@H](CCN)NC(=O)[C@H](CC(=O)O)NC(=O)[C@H](CC(N)=O)NC(=O)CCCNC(=O)c1ccc(Oc2ccc(F)cc2)cc1)C(=O)N(C)[C@@H](CCC(=O)O)C(=O)N1CCC[C@H]1CC(N)=O ({X2-GABA}-ND[Dab]L[NMeE][β3hP]-NH2) | 40700 | 0.11 | 1290 |  |
| CSCC[C@H](NC(=O)[C@H](CC(C)C)NC(=O)[C@H](C)NC(=O)[C@H](CC(=O)O)NC(=O)[C@H](CC(N)=O)NC(=O)CNS(=O)(=O)c1ccc(Oc2ccccc2)cc1)C(=O)N1CCC[C@H]1C(N)=O ({Benzenesulfonyl(4-OPh)}-GNDALMP-NH2) | 13 | 69 | 6470 | 916 |
| CSCC[C@@H](C(=O)N1CCC[C@H]1CC(N)=O)N(C)C(=O)[C@H](CC(C)C)NC(=O)[C@H](C)NC(=O)[C@H](CC(=O)O)NC(=O)[C@H](CC(N)=O)NC(=O)CCCNS(=O)(=O)c1ccc(Oc2ccccc2)cc1 ({Benzenesulfonyl(4-OPh)-GABA}-NDAL[NMeM][β3hP]-NH2) | 43 | 0.044 | 5.8 |  |
| CSCC[C@H](NC(=O)[C@H](CC(C)C)NC(=O)[C@H](C)NC(=O)[C@H](CC(=O)O)NC(=O)[C@H](CC(N)=O)NC(=O)CCNS(=O)(=O)c1ccc(-c2ccccc2)cc1)C(=O)N1CCC[C@H]1C(N)=O ({Benzenesulfonyl(4-Ph)-βAla}-NDALMP-NH2) | 18 | 6.3 | 1730 |  |
| CC[C@H](C)[C@@H](C(=O)N1CCC[C@H]1CC(N)=O)N(C)C(=O)[C@H](CC(C)C)NC(=O)[C@H](CCN)NC(=O)[C@H](CC(=O)O)NC(=O)[C@H](CC(N)=O)NC(=O)CCCNS(=O)(=O)c1ccc(Oc2ccccc2)cc1 ({Benzenesulfonyl(4-OPh)-GABA}-ND[Dab]L[NMeI][β3hP]-NH2) | 6010 | 0.09 | 443 |  |
| CC(C)C[C@H](NC(=O)[C@H](C)NC(=O)[C@H](CC(=O)O)NC(=O)[C@H](CC(N)=O)NC(=O)CCCNS(=O)(=O)c1ccc(Oc2ccccc2)cc1)C(=O)N(C)[C@H](C(=O)N1CCC[C@H]1C(N)=O)C(C)C ({Benzenesulfonyl(4-OPh)-GABA}-NDAL[NMeV]P-NH2) | 282 | 0.078 | 21 |  |
| CC[C@H](C)[C@@H](C(=O)N1CCC[C@H]1C(N)=O)N(C)C(=O)[C@H](CC(C)C)NC(=O)[C@H](C)NC(=O)[C@H](CC(=O)O)NC(=O)[C@H](CC(N)=O)NC(=O)CCCNS(=O)(=O)c1ccc(Oc2ccccc2)cc1 ({Benzenesulfonyl(4-OPh)-GABA}-NDAL[NMeI]P-NH2) | 186 | 0.097 | 16 |  |
| CSCC[C@@H](C(=O)N1CCC[C@H]1C(N)=O)N(C)C(=O)[C@H](CC(C)C)NC(=O)[C@H](C)NC(=O)[C@H](CC(=O)O)NC(=O)[C@H](CC(N)=O)NC(=O)CCCNS(=O)(=O)c1ccc(Oc2ccccc2)cc1 ({Benzenesulfonyl(4-OPh)-GABA}-NDAL[NMeM]P-NH2) | 57 | 0.128 | 7 |  |
| CSCC[C@H](NC(=O)[C@H](CC(C)C)NC(=O)[C@H](C)NC(=O)[C@H](CC(=O)O)NC(=O)[C@H](CC(N)=O)NC(=O)CCCNS(=O)(=O)c1ccc(-c2ccccc2)cc1)C(=O)N1CCC[C@H]1C(N)=O ({Benzenesulfonyl(4-Ph)-GABA}-NDALMP-NH2) | 5 | 9.2 | 1120 |  |
| CC(C)C[C@H](NC(=O)[C@H](C)NC(=O)[C@H](CC(=O)O)NC(=O)[C@H](CC(N)=O)NC(=O)CCCNS(=O)(=O)c1ccc(Oc2ccccc2)cc1)C(=O)N(C)[C@@H](CC(C)C)C(=O)N1CCC[C@H]1C(N)=O ({Benzenesulfonyl(4-OPh)-GABA}-NDAL[NMeL]P-NH2) | 62 | 0.066 | 9.2 |  |
| CSCC[C@H](NC(=O)[C@H](CC(C)C)NC(=O)[C@H](C)NC(=O)[C@H](CC(=O)O)NC(=O)[C@H](CC(N)=O)NC(=O)CCCCNS(=O)(=O)c1ccc(-c2ccccc2)cc1)C(=O)N1CCC[C@H]1C(N)=O ({Benzenesulfonyl(4-Ph)-Ava}-NDALMP-NH2) | 12 | 2.9 | 1710 |  |
| CC[C@H](C)[C@@H](C(=O)N1CCC[C@H]1CC(N)=O)N(C)C(=O)[C@H](CC(C)C)NC(=O)[C@H](CN)NC(=O)[C@H](CC(=O)O)NC(=O)[C@H](CC(N)=O)NC(=O)CCCNS(=O)(=O)c1ccc(Oc2ccccc2)cc1 ({Benzenesulfonyl(4-OPh)-GABA}-ND[Dap]L[NMeI][β3hP]-NH2) | 977 | 0.13 | 274 |  |
